Experiments:
[1] = Sensory investigation of the taste impression of divanillin
[2] = as described in JP 07-179853 A2; cited from earlier work
[3] = Taste threshold value determination

## COc1cc(C=O)cc(-c2cc(C=O)cc(OC)c2O)c1O [divanillin, 6,6′-dihydroxy-5,5′-dimethoxy-[1,1′-biphenyl]-3,3′-dicarboxaldehyde]
[1]; higher concentration values preferred according to JP 07-179853 A2 (0.001 to 5 wt. %)
  taste impression at higher concentration: diminishes in favour of a vanilla-like individual taste
[1]; own investigations
  taste impression: pleasant, adherent and rich taste impression of creaminess, milk fattiness, butteriness and sweetness
[2]
  odour and taste description: odourless and tasteless
[3]
  taste threshold value: below 1 ppm

Reference: patent US20060286237A1, “Use of divanillin as a flavouring agent” (priority 2003, published 2006)
